# Experimental data from patent US8895580B2, “Quinolinone-pyrazolone M1 receptor positive allosteric modulators” (Merck Sharp & Dohme Corp., priority 2009, dated 2014).
# Target: T1, acetylcholine muscarinic M1 receptor (CHOnfat/hM1 cells) (Homo sapiens, UniProt P11229)
# T1 construct: expressed in transfected cells; host or cells: CHOnfat cells (CHOnfat/hM1; Geneticin-selected)
# T1 sequence (P11229 1-460): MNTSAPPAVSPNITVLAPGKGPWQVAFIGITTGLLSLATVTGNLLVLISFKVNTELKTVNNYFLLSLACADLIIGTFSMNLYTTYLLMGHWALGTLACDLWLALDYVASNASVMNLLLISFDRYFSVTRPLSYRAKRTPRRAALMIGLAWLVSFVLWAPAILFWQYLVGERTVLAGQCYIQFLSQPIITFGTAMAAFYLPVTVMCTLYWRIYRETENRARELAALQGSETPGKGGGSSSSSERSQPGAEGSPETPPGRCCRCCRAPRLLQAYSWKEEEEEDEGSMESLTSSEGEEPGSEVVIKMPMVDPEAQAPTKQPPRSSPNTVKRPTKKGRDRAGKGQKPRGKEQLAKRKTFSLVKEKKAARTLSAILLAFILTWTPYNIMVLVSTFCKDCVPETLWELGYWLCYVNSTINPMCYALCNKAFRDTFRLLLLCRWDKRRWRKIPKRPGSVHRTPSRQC
# Assay: muscarinic M1 FLIPR intracellular calcium assay (positive allosteric modulation)
# Assay type: cell-based
# Details: FLIPR Ca2+, 4 min preincubation, then EC20 acetylcholine (3 nM final), read-out: IP Value (inflection point)
# Experimental: The assay studies the effect of one or several concentrations of test compounds on basal or acetylcholine-stimulated Ca^2+ levels using FLIPR.
# Compounds are prepared and subjected to a preincubation period of 4 min. Thereafter, a single EC20 concentration of acetylcholine is added to each well (3 nM final). The intracellular Ca^2+ level of each sample is measured and compared to an acetylcholine control to determine any modulatory activity.
# Cells: CHOnfat/hM1, hM2, hM3 or hM4 cells are plated 24 hr before the assay at a density of 18,000 cells/well (100 μL) in a 384 well plate. CHOnfat/hM1 and CHOnfat/hM3 Growth Medium: 90% DMEM (Hi Glucose); 10% HI FBS; 2 mM L-glutamine; 0.1 mM NEAA; Pen-Strep; and 1 mg/ml Geneticin, are added. For M2Gqi5CHOnfat and M4Gqi5CHOnfat cells, an additional 600 ug/ml hygromycin is added.
# Equipment: 384 well plate, 1204 addition plate; 96-well Whatman 2 ml Uniplate Incubator, 37° C., 5% CO2; Skatron EMBLA-384 Plate Washer; Multimek Pipetting System; Genesis Freedom 200 System; Mosquito System; Temo Nanoliter Pipetting System; and FLIPR^384 Fluorometric Imaging Plate Reader System are used.
# Buffers. Assay Buffer: Hanks Balanced Salt Solution, with 20 mM Hepes, 2.5 mM Probenecid (Sigma P-8761) first dissolved in 1 N NaOH, 1% Bovine Serum Albumin (Sigma A-9647). Dye Loading Buffer: Assay Buffer plus 1% Fetal Bovine Serum and Fluo-4AM/Pluronic Acid Mixture. 2 mM Fluo-4AM ester stock in DMSO (Molecular Probes F-14202) Concentration of 2 μM in buffer for a final concentration of 1 μM in Assay. 20% Pluronic Acid Solution stock, with concentration of 0.04% in Buffer, 0.02% in Assay.
# 65 μL of 2 mM Fluo-4AM are mixed with 130 μL of 20% Pluronic Acid. The resulting solution and 650 μL FBS is added to the assay buffer for a total volume of 65 mL. Positive Controls: 4-Br-A23187: 10 mM in DMSO; final concentration 10 μM. Acetylcholine: 10 mM in water, working stock at both 20 μM and 30 μM in assay buffer, final concentration of 10 μM. This is used to check the maximum stimulation of the CHOK1/hM1 cells, 20 μM (2×) acetylcholine is added in the preincubation part of the assay, and the 30 μM (3×) stock is added in the second part. (EC20)Acetylcholine: 10 mM in water, working stock of 9 nM (3×), and final concentration in assay is 3 nM. This is used after the preincubation with test compounds. Addition of the EC20 Acetylcholine to each well with a test compound will ascertain any modulator activity. 24 wells contain 3 nM Acetylcholine alone as a control.
# Determining Activity of Putative Compounds:
# Screening Plate Compounds are titrated in 96-well plates (columns 2-11), 100% DMSO, started at a concentration of 15 mM (150× stock concentration), and 3-fold serial dilutions using Genesis Freedom200 System. Four 96-well plates are combined into a 384-well plate using Mosquito Nanoliter Pipetting System by transferring 1 μl of serial diluted compounds to each well, and 1 mM acetylcholine (100× stock concentration) were added as a control. Using Temo, 49 μl assay buffer is added to each well of the 384-well plate right before assay.
# In a 96-well Whatman 2 ml Uniplate, 9 nM Acetylcholine (3×) is pipetted into wells corresponding to the screening compounds, and into control wells. The 30 μM acetylcholine control (3×) is added into control wells, and the 3× agonist plate is transferred into a 384 well plate.
# Cells are washed three times with 100 μl, of buffer, leaving 30 μl of buffer in each well. Using Multimek, 30 μL of Dye Loading Buffer is added into each well and incubated at 37° C., 5% CO2 for up to one hr.
# After 60 min, the cells are washed three times with 100 μl of buffer, leaving 30 μl, of buffer in each well. The cell plate, screening plate, and agonist addition plates are placed on the platform in the FLIPR and the door closed. A signal test to check background fluorescence and basal fluorescence signal is performed. Laser intensity is adjusted if necessary. […]
row,EC50,SMILES
1,415 nM,"COc1ccc(Cn2cc3c(=O)n(-c4ccccc4F)nc-3c3ccccc32)cc1 [Example 1, 2-(2-Fluorophenyl)-5-{[4-(methoxy)phenyl]methyl}-2,5-dihydro-3H-pyrazolo[4,3-c]quinolin-3-one]"
2,824 nM,O=c1c2cn(Cc3c(F)cccc3F)c3ccccc3c-2nn1-c1ccccc1F [Example 294]
3,65 nM,"O=c1c2cn(Cc3ccc(-n4cccn4)cc3)c3c(F)ccc(F)c3c-2nn1-c1ncccc1C(F)(F)F [Example 77, 6,9-Difluoro-5-{[4-(1H-pyrazol-1-yl)phenyl]methyl}-2-[3-(trifluoromethyl)pyridin-2-yl]-2,5-dihydro-3H-pyrazolo[4,3-c]quinolin-3 one]"
4,59 nM,"O=c1c2cn(Cc3ccc(-n4cccn4)cc3)c3ccccc3c-2nn1-c1ccccc1F [Example 107, 2-Fluorophenyl-5-{[4-(1H-pyrazol-1-yl)phenyl]methyl}-2,5-dihydro-3H-pyrazolo[4,3-c]quinolin-3-one]"
5,159 nM,CC(C)Cn1cc(-c2ccc(Cn3cc4c(=O)n(-c5ccccc5F)nc-4c4ccccc43)cn2)cn1 [Example 242]
6,22 nM,"N#Cc1cccc(F)c1-n1nc2c3ccccc3n(Cc3ccc(-n4cccn4)cc3)cc-2c1=O [Example 667, 3-Fluoro-2-(3-oxo-5-{[4-(1H-pyrazol-1-yl)phenyl]methyl}-3,5-dihydro-2H-pyrazolo[4,3-c]quinolin-2-yl)benzonitrile]"
7,653 nM,"Cc1ccnc(N[C@H]2CCCC[C@@H]2n2cc3c(=O)n(-c4nccc(C)c4F)nc-3c3c(NCc4ccc(-n5cccn5)cc4)c(F)ccc32)c1F (racemic) [Example 733, (±)-8-Fluoro-2-(3-fluoro-4-methylpyridin-2-yl)-5-trans-2-[(3-fluoro-4-methylpyridin-2-yl)amino]cyclohexy}-9-({[4-(1H-pyrazol-1-yl)phenyl]methyl}amino)-2,5-dihydro-3H-pyrazolo[4,3-c]quinolin-3-one]"
8,204 nM,"O=c1c2cn(Cc3ccc(-n4cccn4)cc3)c3c(F)ccc(F)c3c-2nn1-c1ccccc1CO [Example 55, 6,9-Difluoro-2-[2-(hydroxymethyl)phenyl]-5-{[4-(1H-pyrazol-1-yl)phenyl]methyl}-2,5-dihydro-3H-pyrazolo[4,3-c]quinolin-3-one]"
9,179 nM,"O=c1c2cn(Cc3ccc(-n4cccn4)cc3)c3ccccc3c-2nn1-c1ccccc1CN1CCCC1 [Example 648, 5-{[4-(1H-Pyrazol-1-yl)phenyl]methyl}-2-[2-(pyrrolodin-1-ylmethyl)phenyl]-2,5-dihydro-3H-pyrazolo[4,3-c]quinolin-3-one]"
10,135 nM,"O=C1CCCCC1n1nc2c3ccccc3n(Cc3ccc(-n4cccn4)cc3)cc-2c1=O (racemic) [Example 720, (±)-2-(2-oxocyclohexyl)-5-{[4-(1H-pyrazol-1-yl)phenyl]methyl}-2,5-dihydro-3H-pyrazolo[4,3-c]quinolin-3-one]"
11,4870 nM,"CNC(=O)c1ccccc1-n1nc2c3ccccc3n(Cc3ccc(-n4cccn4)cc3)cc-2c1=O [Example 612, N-Methyl-2-(3-oxo-5-{[4-(1H-pyrazol-1-yl)phenyl]methyl}-3,5-dihydro-2H-pyrazolo[4,3-c]quinolin-2-yl)benzamide]"
12,1640 nM,"O=c1c2cn(Cc3ccc(-c4ccc5[nH]ccc5c4)cc3F)c3ccccc3c-2nn1-c1ccccc1F [Example 187, 5{[2-Fluoro-4-(1H-indol-5-yl)phenyl]methyl}-2-(2-fluorophenyl)-2,5-dihydro-3H-pyrazolo[4,3-c]quinolin-3-one]"
13,1990 nM,"O=c1c2cn(Cc3ccc(-c4ccccc4)cc3)c3ccccc3c-2nn1-c1ccccc1F [Example 8, 2-(2-Fluorophenyl)-5-(biphenyl-4-ylmethyl)-2,5-dihydro-3H-pyrazolo[4,3-c]quinolin-3-one]"
14,1290 nM,O=c1c2cn(Cc3nccc4ccccc34)c3ccccc3c-2nn1-c1ccccc1F [Example 128]
15,33 nM,"O=c1c2cn(Cc3ccc(-n4cccn4)cc3)c3ccccc3c-2nn1[C@H]1CCCC[C@@H]1O (racemic) [Example 508, (±)-2-(trans-2-Hydroxycyclohexyl)-5-{[4-(1H-pyrazol-1-yl)phenyl]methyl}-2,5-dihydro-3H-pyrazolo[4,3-c]quinolin-3-one]"
16,664 nM,"CC(=O)N1CCC(n2nc3c4ccccc4n(Cc4ccc(-n5cccn5)cc4)cc-3c2=O)CC1 [Example 675, 2-(1-Acetylpiperidin-4-yl)-5-{[4-(1H-pyrazol-1-yl)phenyl]methyl}-2,5-dihydro-3H-pyrazolo[4,3-c]quinolin-3-one5]"
17,103 nM,"Cn1cnc(-n2nc3c4c(F)ccc(F)c4n(Cc4ccc(-n5cccn5)cc4)cc-3c2=O)c1 [Example 24, 6,9-Difluoro-2-(1-methyl-1H-imidazol-4-yl)-5-{[4-(1H-pyrazol-1-yl)phenyl]methyl}-2,5-dihydro-3H-pyrazolo[4,3-c]quinolin-3-one]"
18,123 nM,CCNCc1ccccc1-n1nc2c3c(F)ccc(F)c3n(Cc3ccc(-n4cccn4)cc3)cc-2c1=O [Example 56]
19,1250 nM,"CCN(CC)C(=O)Cn1nc2c3ccccc3n(Cc3ccc(-n4cccn4)cc3)cc-2c1=O [Example 690, N,N-Diethyl-2-(3-oxo-5-{[4-(1H-pyrazol-1-yl)phenyl]methyl}-3,5-dihydro-2H-pyrazol[4,3-c]quinolin-2-yl)acetamide]"
20,359 nM,O=c1c2cn(Cc3ccc(-n4cccn4)cc3)c3ccccc3c-2nn1C1CCOCC1 [Example 428]
21,246 nM,Cc1ccc(-c2ccc(Cn3cc4c(=O)n(-c5ccccc5F)nc-4c4ccccc43)nc2)cn1 [Example 258]
22,900 nM,O=c1c2cn(Cc3ccc(-c4ncco4)cc3)c3ccccc3c-2nn1-c1ccccc1F [Example 381]
23,4.8 nM,O=C1CCc2cccc(-n3nc4c5ccccc5n(Cc5ccc(-n6cccn6)cc5)cc-4c3=O)c21 [Example 587]
24,90 nM,"O=c1c2cn(Cc3ccc4[nH]ccc4c3)c3ccccc3c-2nn1-c1ccccc1F [Example 109, 2-(2-Fluorophenyl)-5-(1H-indol-5-ylmethyl)-2,5-dihydro-3H-pyrazolo[4,3-c]quinolin-3-one]"
25,348 nM,"O=c1c2cn(Cc3ccc(-n4cncn4)cc3F)c3c(F)ccc(F)c3c-2nn1-c1ccccc1F [Example 84, 6,9-Difluoro-2-(2-fluorophenyl)-5-{[2-fluoro-4-(1H-1,2,4-triazol-1-yl)phenyl]methyl}-2,5-dihydro-3H-pyrazolo[4,3-c]quinolin-3-one]"
